This passage reports remaining target (mRNA or protein) (fraction of control) results from the OligoGym collection.

Holding throughout (details): ASO
Data set [1] has as its target SMAD7.
In data set [2] the target is PTPN11.
The target in data set [3] is MAP3K1.

These antisense oligonucleotides have a phosphorothioate backbone; sugars and methylation of C are not fully specified. Where only a bound is given, the exact number is not on record here.
Further: test concentration or dose not given here.

Regarding AAAACAGAACACAAACGA, the remaining target (mRNA or protein) (fraction of control) in data set [1] is at least 1.
As for AAAACCTGATGTCACCAG, the remaining target (mRNA or protein) (fraction of control) in data set [1] was at least 1.
Regarding AAACCATCTCCGCGATGTCA, the remaining target (mRNA or protein) (fraction of control) in data set [2] came out at 0.41.
For the sequence AAAGAATCAAACCGTTCTCC, in data set [2], the remaining target (mRNA or protein) (fraction of control) is 0.58.
AAAGTCATTCACCGTGTTTT displayed a remaining target (mRNA or protein) (fraction of control) in data set [2] of 0.54.
In data set [1], AACCTTTGTAGTTAGAAA displayed a remaining target (mRNA or protein) (fraction of control) of 0.94.
The sequence AAGAATATCAATCACAATGA gave a remaining target (mRNA or protein) (fraction of control) in data set [2] of at least 1.
In data set [3], AATCCTTTTCCAGTTTTCTC came in with a remaining target (mRNA or protein) (fraction of control) of 0.87.
With AATTGGTTCTGGTTCGGC, in data set [1], the remaining target (mRNA or protein) (fraction of control) is at least 1.
Take ACACACAGGATGGGAGCA: the remaining target (mRNA or protein) (fraction of control) in data set [1] was at least 1.
In the case of ACACCAGTGATATTTGGGTG, in data set [2], the remaining target (mRNA or protein) (fraction of control) is at least 1.
ACATAAACTTTCTTGCGTCT: in data set [2], the remaining target (mRNA or protein) (fraction of control) amounted to 0.88.
With ACATACTTAGGTAAGGGTTC, the remaining target (mRNA or protein) (fraction of control) in data set [3] came to 0.56.
Sequence ACCATCTCCGCGATGTCATG displayed a remaining target (mRNA or protein) (fraction of control) in data set [2] of 0.33.
Sequence ACCATTCTTGCAGAACTCAA had a remaining target (mRNA or protein) (fraction of control) in data set [3] of 0.55.
With ACCTTGTGTACCAACAGC, the remaining target (mRNA or protein) (fraction of control) in data set [1] is at least 1.
For the sequence ACGGACCCGCTCCTTGCTCA, the remaining target (mRNA or protein) (fraction of control) in data set [2] was found to be 0.48.
ACTCACACACACTCCTGA came in with a remaining target (mRNA or protein) (fraction of control) in data set [1] of 0.79.
AGAAGTTGGGAATCTGAA: the remaining target (mRNA or protein) (fraction of control) in data set [1] was at least 1.
For AGAGCATACTCATCAGGCCA, in data set [2], the remaining target (mRNA or protein) (fraction of control) was 0.2.
AGCACCGAGTGCGTGAGC returned a remaining target (mRNA or protein) (fraction of control) in data set [1] of 0.72.
The same measure, in the same setting: with AGCCTCTTGACTTCCGAG the figure was at least 1.
AGGAGGCGAGGAGAAAAG had a remaining target (mRNA or protein) (fraction of control) in data set [1] of at least 1.
As for AGGCGGCCGGGCAGCAGG, the remaining target (mRNA or protein) (fraction of control) in data set [1] is at least 1.
In the case of AGTAACCATTCTTGCAGAAC, in data set [3], the remaining target (mRNA or protein) (fraction of control) was at least 1.
On to AGTCTGCAGTTGGTTTGA, for which, in data set [1], the remaining target (mRNA or protein) (fraction of control) is at least 1.
AGTTCGCAGAGTCGGCTA: the remaining target (mRNA or protein) (fraction of control) in data set [1] is 0.68.
Turning to ATCATGATTTGTCAATCACA, the remaining target (mRNA or protein) (fraction of control) in data set [3] amounted to 0.62.
For ATCTATTTCTGTGCTGAAGT, the remaining target (mRNA or protein) (fraction of control) in data set [2] is 0.66.
In turn, ATCTGCACAGTTCAGAGGAT came in with a remaining target (mRNA or protein) (fraction of control) in data set [2] of 0.51.
On to ATGCTCTCCTGCTTATGGTG, for which the remaining target (mRNA or protein) (fraction of control) in data set [2] stood at 0.37.
In turn, ATGTCATGTTCCTCCCGCCC displayed a remaining target (mRNA or protein) (fraction of control) in data set [2] of 0.43.
ATTCAGCTAGGTGATAAC: the remaining target (mRNA or protein) (fraction of control) in data set [1] is at least 1.
In data set [3], ATTGGGTACTGTAGTAACCA yielded a remaining target (mRNA or protein) (fraction of control) of 0.54.
For ATTTCCAATGAGAATGCT, the remaining target (mRNA or protein) (fraction of control) in data set [1] is at least 1.
With ATTTCCACCTCATCTGCATA, the remaining target (mRNA or protein) (fraction of control) in data set [3] was determined as 0.44.
In turn, CAAGGCTGGAAACATTAATT registered a remaining target (mRNA or protein) (fraction of control) in data set [3] of 0.94.
In data set [1], CAATCTTGTGTTTATCTT displayed a remaining target (mRNA or protein) (fraction of control) of at least 1.
As to CACGTTTTCATAGACTCTAG, the remaining target (mRNA or protein) (fraction of control) in data set [2] amounted to 0.71.
CAGAAATGTCCTCTGAACTG came in with a remaining target (mRNA or protein) (fraction of control) in data set [3] of 0.5.
In data set [3], CAGTCCGCCCGCTCGCGGCC showed a remaining target (mRNA or protein) (fraction of control) of 0.34.
The same measure, in the same setting: next, CAGTTTTGAAAACACATGGG: at least 1.
The sequence CATCTCCGCGATGTCATGTT returned a remaining target (mRNA or protein) (fraction of control) in data set [2] of 0.49.
Regarding CATGTTCCTCCCGCCCTCCG, the remaining target (mRNA or protein) (fraction of control) in data set [2] was 0.29.
Consider CATTCTTGCAGAACTCAAGT, for which the remaining target (mRNA or protein) (fraction of control) in data set [3] was found to be 0.54.
Take CCACCGACTCGGTAAGGTGG: the remaining target (mRNA or protein) (fraction of control) in data set [3] came to 0.81.
Turning to CCACTGGCCTCGTTCATAGC, the remaining target (mRNA or protein) (fraction of control) in data set [3] is 0.21.
In turn, CCCACTCCCCGCTGCGTCCG had a remaining target (mRNA or protein) (fraction of control) in data set [3] of 0.06.
For the sequence CCCTCCTCCTCGTCCTCG, in data set [1], the remaining target (mRNA or protein) (fraction of control) stood at 0.72.
CCCTTGTCCAACCTTTGAAA yielded a remaining target (mRNA or protein) (fraction of control) in data set [2] of 0.25.
Turning to CCTGCGCTGTAGTGTTTCAA, in data set [2], the remaining target (mRNA or protein) (fraction of control) stood at 0.5.
The sequence CGAACATGACCTCCGCAC came in with a remaining target (mRNA or protein) (fraction of control) in data set [1] of 0.52.
In the case of CGACAGCAGCAGCAGCAG, the remaining target (mRNA or protein) (fraction of control) in data set [1] stood at 0.82.
Sequence CGATGTCATGTTCCTCCCGC yielded a remaining target (mRNA or protein) (fraction of control) in data set [2] of 0.4.
In data set [2], CGCACCATCTGGATGGTTTT showed a remaining target (mRNA or protein) (fraction of control) of 0.5.
With CGCGATGTCATGTTCCTCCC, the remaining target (mRNA or protein) (fraction of control) in data set [2] stood at 0.45.
The sequence CTCCGGCTGCCCCACCCC yielded a remaining target (mRNA or protein) (fraction of control) in data set [1] of 0.52.
Still for that read-out and setting: next, CTGATCTGCACGGTAAAG: at least 1.
